Test results reported in patent US9539327B2, “Small molecule cancer treatments that cause necrosis in cancer cells but do not affect normal cells” (THE RESEARCH FOUNDATION FOR THE STATE UNIVERSITY OF NEW YORK, priority 2007, dated 2017).
Ends that are not written are not given here.

Key:
[1] = system: MiaPaCa-2, Hu-Melanoma cells, BMRPA1.TUC-3 cells; experiment: Dose-response cytotoxicity by LDH release, cancer cells (FIG. 13 A-C); assay type: cell-based; details: 1-500 micrograms/ml; 30 min at 37° C.; tumor cells
Protocol: (§1) FIG. 13, graphs A through D, depict the results of dose-response experiments completed on three difference cancer cell samples and one normal primary human cell line to treatment in vitro with PNC-27 (from 1-500 micrograms/ml). The cancer cell lines were human pancreatic cancer, MiaPaCa-2 (upper left, A), Hu-Melanoma cells (upper right, B), and a rodent tumor cell line, i.e., pancreatic cancer BMRPA1.TUC-3 cells (lower left, C). As controls, cells from the same cell lines were tested in parallel with a control peptide, PNC-29, over the same range of peptide concentrations. As another control, cells from primary human Ag 13145 fibroblasts (lower right, D) were treated with the same doses of PNC-27 and PNC-29, respectively.
(§2) The results are plotted along with those for PNC-29, the negative control. […] The measurements of cytotoxicity were performed by assaying for LDH in the cell supernatant.
(§3) For the dose response experiments (n=3-5), 0.1 ml of each of the cells (70,000 cells/ml of culture medium) were seeded into each of the wells of 96-well TCD (7000 cells/well) and allowed to adhere overnight. […] The results were read at OD490 nm in an ELISA plate reader within 15 min of stopping the color development in the wells. The results were calculated as advised by the manufacturers guidelines (CytoTox 96 Non-radioactive Cytotoxicity Assay, Promega), and the data were expressed in % Cytotoxicity.

[2] = system: human pancreatic cancer MIA PaCa-2 cells; experiment: Transmission electron microscopy of PNC-28-treated cells (FIG. 8); assay type: cell-based; details: treated for 10 minutes; 50 μg/ml
Protocol: FIG. 8 depicts a photograph taken during a Transmission Electron Microscopy study of human pancreatic cancer MIA PaCa-2 cells that had been treated for 10 minutes with PNC-28. […] The middle arrow depicts an area of the cell's plasma membrane that has erupted as a result of PNC-28 acting upon it. The bottom-most arrow depicts an area on the cell's plasma membrane that is discontinuous as a result of PNC-28 administration. From one or more of these areas emphasized with arrows, the cytoplasm will begin to leak from the cell, into the surrounding medium. Extrusion of much of the cells cytoplasmic content through such holes (pores) while the nuclear membrane was still intact was a frequent finding in these and other tumor cells when the incubation period with PNC-28 was extended. Magn. ×42,600.
Cells (1×10^6) were grown in 6-well dishes overnight then spent medium was removed, the cells were washed with PBS and treated at 37° C. with PNC-28 at 50 μg/ml in PBS. At different time points (5-30 min) during the PNC-28 treatment the cells were washed and fixed in 3% buffered paraformaldehyde supplemented with 0.01% glutaraldehyde for 1.5 h. After extensive washing, the cells were treated with glycine and NaBH4 as described above followed by 3 times washing in PBS. […]

[3] = system: non-cancerous cells; experiment: Untransformed cell lines and primary human cells incubated with peptide (FIG. 5); assay type: cell-based; details: Thirty microMolar; one day up to two weeks; normal rat pancreatic acinar cells, human breast cells, primary human fibroblasts, primary human keratinocytes, umbilical cord stem cells
From the text: The experimental methods which yielded the data depicted in FIG. 5 are described in sufficient detail for those skilled in the art in the following publications: • Kanovsky, M., Raffo, A., Drew, L., Rosal, R., Do, T., Friedman, F. K., Rubinstein, P., Visser, I., Robinson, R., Brandt-Rauf, […]., Fine, R. L. and Pincus, M. R. (2001) Peptides from the Amino Terminal mdm-2 Binding Domain of p53, Designed from Conformational Analysis, Are Selectively Cytotoxic to Transformed Cells. Proc. Natl. Acad. Sci. USA 98, 12438-12443; • Do, T. N., Rosal, R. V., Drew, L., Raffo, […]., Pincus, M. R., Friedman, […]., Sidhu, G., Fine, R. L. and Brandt-Rauf, P. W. (2003) Preferential Induction of Necrosis in Human Breast Cancer Cells by a p53 Peptide Derived from the mdm-2 Binding Site. Oncogene 22, 1431-1444; and • Bowne, […]., Yadzi, E., Lou, […]., Harding, M., Bluth, M. H., Ng, M., Brandt-Rauf, […]. and Pincus, M. r. (2008) The Penetrating Sequence in the Anti-Cancer PNC-28 Peptide Causes Tumor Necrosis Rather than Apoptosis of Human Pancreatic Cancer Cells. Ann. Surg. Oncol., in press. Referring to FIG. 5, the table illustrates that the cancer treatment PNC-27, when administered to non-cancerous cells, has no effect. […]

[4] = system: Cancer cells
Protocol: After the cells were treated, the cells were incubated first with the anti-p53 antibody that recognizes p53 residues 12-26. This antibody is called DO-1, and it is labeled with FITC, a green fluorescent probe. The cells were washed free of any excess antibody. Then the cells were incubated with an anti-HDM-2 antibody that was been conjugated to a red fluorescent dye. After washing the cells free of excess antibody, the cells were subjected to confocal microscopy.

[5] = system: primary human Ag 13145 fibroblasts; experiment: Dose-response cytotoxicity by LDH release, normal fibroblasts (FIG. 13 D); assay type: cell-based; details: same dose range as applied to tumor cells (1-500 micrograms/ml); 30 min at 37° C.
Protocol: as §1, §2, §3

Molecule | cytotoxicity (LDH in the cell supernatant) [1] | plasma membrane change (TEM) [2] | effect on non-cancerous cells [3] | IC50 [4] [µg/mL] | cytotoxicity (LDH in the cell supernatant) [5]
CC[C@H](C)[C@H](NC(=O)[C@H](CCCNC(=N)N)NC(=O)[C@H](CCCCN)NC(=O)CNC(=O)[C@@H](NC(=O)[C@H](CO)NC(=O)[C@H](Cc1ccccc1)NC(=O)[C@@H]1CCCN1C(=O)[C@@H](N)CCSC)[C@@H](C)O)C(=O)N[C@@H](CCSC)C(=O)N[C@@H](CC(C)C)C(=O)NCC(=O)N[C@@H](CCC(=O)O)C(=O)N[C@@H](CCCCN)C(=O)N[C@@H](CCCCN)C(=O)N[C@@H](Cc1c[nH]c2ccccc12)C(=O)N[C@@H](CCCCN)C(=O)N[C@@H](CCSC)C(=O)N[C@@H](CCCNC(=N)N)C(=O)N[C@@H](CCCNC(=N)N)C(=O)N[C@@H](CC(N)=O)C(=O)N[C@@H](CCC(N)=O)C(=O)N[C@@H](Cc1ccccc1)C(=O)N[C@@H](Cc1c[nH]c2ccccc12)C(=O)N[C@H](C(=O)N[C@@H](CCCCN)C(=O)N[C@H](C(=O)N[C@@H](CCC(N)=O)C(=O)N[C@@H](CCCNC(=N)N)C(=O)NCC(=O)O)C(C)C)C(C)C [PNC-29, reference compound] | absence of any effect |  |  |  | 
ETFSDLWKLLKKWKMRRNQFWVKVQRG (PNC-28) [p53 AA 17-26 attached to the membrane resident peptide (MRP)] |  | needle-shaped pore has formed in the cancer cell plasma membrane | no measurable effect |  | 
PPLSQETFSDLWKLLKKWKMRRNQFWVKVQRG [PNC-27] | strong dose dependency |  |  | 125 | no effect
